The source of these data is paper PMC6761801 (ACS Omega, 2019).

Common to all, as to experiment: MIC, broth microdilution
On the technique in general: In broth dilution the organism is exposed to a series of concentrations in liquid medium.

For test [1], the system named is Bacillus subtilis (KCTC 3068). It counts as cell-based. The settings on record: B. subtilis, 2 × 10^6 CFU/mL.
The test system of test [2] is Staphylococcus epidermidis (KCTC 1917). It counts as cell-based. The settings on record: S. epidermidis, 2 × 10^6 CFU/mL.
In a further test the test system is S. aureus (KCTC 1621). It counts as cell-based, Staphylococcus aureus. The note with it: 2 × 10^6 CFU/mL.
The subject of test [3] is Proteus vulgaris (KCTC 2433). It counts as cell-based. The note with it: P. vulgaris, 2 × 10^6 CFU/mL.
The subject of test [4] is Salmonella typhimurium (KCTC 1926). It counts as cell-based. The note with it: S. typhimurium, 2 × 10^6 CFU/mL.
The subject of test [5] is Pseudomonas aeruginosa (KCTC 1637). It counts as cell-based. The settings on record: P. aeruginosa, 2 × 10^6 CFU/mL.
A further test deals with E. coli (KCTC 1682). The class given is cell-based, Escherichia coli. The note with it: 2 × 10^6 CFU/mL.
Test [6] relates to Enterococcus faecalis (KCTC 2011). It counts as cell-based. The note with it: E. faecalis, 2 × 10^6 CFU/mL.
Setting [7] is: in the presence of 16 μM R9 (+R9).

Ends that are not written are not given here. A value given as a limit tells only on which side of the number the result lay.

For the compound `N=C(N)NCCC[C@H](NC(=O)[C@H](CCCNC(=N)N)NC(=O)[C@H](CCCNC(=N)N)NC(=O)[C@H](CCCNC(=N)N)NC(=O)[C@H](CCCNC(=N)N)NC(=O)[C@H](CCCNC(=N)N)NC(=O)[C@H](CCCNC(=N)N)NC(=O)[C@H](CCCNC(=N)N)NC(=O)[C@@H](N)CCCNC(=N)N)C(N)=O` [R9], in test [1] (peptide alone (−R9)), the “antimicrobial activity (MIC)” value is greater than 128 µM.
As to “RRRRRRRRRGGGGIGKWLHSAKKFGKAFVGEIMNS-NH2 [R9-magainin]”, the “antimicrobial activity (MIC)” value in test [2] (peptide alone (−R9)) is 4 to 8 µM; in the test with S. aureus (KCTC 1621) (peptide alone (−R9)) it was 8 µM; in test [3] (peptide alone (−R9)), 4 to 8 µM; in test [4] (peptide alone (−R9)), 1 to 2 µM; in test [5] (peptide alone (−R9)), 4 µM; in test [1] (peptide alone (−R9)) it was 2 to 4 µM. Moreover, the “antimicrobial activity (MIC)” value in the test with E. coli (KCTC 1682) (peptide alone (−R9)) is 2 to 4 µM; in test [6] (peptide alone (−R9)) it was 4 µM.
Turning to KWKKLLKKLLKLLKK-NH2 [M15], the “antimicrobial activity (MIC)” value in test [2] (setting [7]) is 16 µM; in test [2] (peptide alone (−R9)), 16 to 32 µM; in the test with S. aureus (KCTC 1621) (setting [7]) it was 8/8 μM; with S. aureus (KCTC 1621) (peptide alone (−R9)), 8/8 μM; in test [3] (setting [7]) it was 32/32 μM; in test [3] (peptide alone (−R9)), 32/32 μM. Also, the “antimicrobial activity (MIC)” value in test [4] (setting [7]) is listed as 32/32 μM; in test [4] (peptide alone (−R9)), 32/32 μM; in test [5] (setting [7]) it was 32/32 μM; in test [5] (peptide alone (−R9)), 32/32 μM; in test [1] (setting [7]) it was 8–16/8–16 μM; in test [1] (peptide alone (−R9)), 8–16/8–16 μM. The “antimicrobial activity (MIC)” value was 16 µM with E. coli (KCTC 1682) (setting [7]), 16 to 32 µM with E. coli (KCTC 1682) (peptide alone (−R9)), 8 µM in test [6] (setting [7]) and 16 µM in test [6] (peptide alone (−R9)).
